For series [1], the system named is purified wild type (WT) luciferase (Photinus pyralis (luciferase) [Ppy Luc]). In words: Purified protein luminescence assays (Michaelis-Menten kinetics, relative emission intensity). The class given is biochemical. The conditions noted are these: for Vmax / Km: Michaelis-Menten fit; for Km: apparent Km, WT luciferase, read-out: Km (App.); for luminescence output when treated with luciferase: 0.1 μM solution, luciferase in enzyme buffer, 10 nM. How it is done: FIG. 10 is a relative luminescence emission intensity of the core luciferins (6-hydroxy, 6-amino, 6-thiol) at 0.1 μM substrate concentration and at a final luciferase concentration of 10 nM.
FIG. 11 illustrates luminescence output of 0.1 μM of protected D-thioluciferin sulfide, D-thioluciferin homodisulfide, and free D-thioluciferin at a final luciferase concentration of 10 nM (control readings were recorded for substrates in the absence of the luc enzyme). The RLU were determined in triplicate and are represented as the mean±SEM.
FIG. 13 is a Michaelis-Menten graph for D-Thioluciferin. […] The assays were performed in triplicate and are represented as the mean and each curve was fit to the Michaelis-Menten equation by nonlinear regression (GraphPad 5.0) to determine apparent Km and Vmax.
Luminescence assays were initiated by adding 30 μL of purified luciferase in enzyme buffer (20 mM Tris [pH 7.4], 0.1 mM EDTA, 1 mM TCEP, and 0.8 mg/mL BSA) to 30 μL 2× substrate in substrate buffer (20 mM Tris [pH 7.4], 0.1 mM EDTA, 8 mM MgSO4, and 4 mM ATP) in a black 96-well plate. Imaging was performed one minute after enzyme addition using a Xenogen® IVIS-100® at a final enzyme concentration of 10 nM and final substrate concentrations ranging from 0.122 to 250 μM. Data acquisition and analysis was performed with Living Image® software. Data are reported as total flux (p/s) for each ROI corresponding to each well of the 96-well plate.

For series [2], the system named is purified firefly luciferase (luc) expressed from E. coli. The series can be described thus: Bioluminescence emission scans. The note with it: for bioluminescence emission wavelength: FIG. 7, 10 nM luciferase with 100 μM substrate; for λmax: bioluminescence emission with luciferase. In kind it is biochemical, Photinus pyralis. How it is done: FIG. 7 is a bioluminescence emission spectrum for 10 nM luciferase with 100 μM D-thioluciferin.
Purified luciferase in enzyme buffer was rapidly injected into a cuvette containing substrate in substrate buffer to a final enzyme concentration of 100 nM and a final substrate concentration of 10 μM. The emission from 400 to 800 nm was recorded in a fluorimeter with closed excitation slits 10 s after injection.

The subject of the next series is WT luciferase (Ppy Luc). In words: Burst kinetics assays / rates of reduction in luminescence. In kind it is biochemical, Photinus pyralis. How it is done: FIG. 9 is a burst kinetics profile of purified 10 nM luciferase treated with 100 μM D-thioluciferin.
[…] […] Data acquisition was performed with SIS for 2020n v1.9.0 software. Data are reported as Relative Light Units (RLU). To correct for the wavelength sensitivity of the PMT in the 20/20n, total flux was also measured using the IVIS-100 as described above with a final enzyme concentration of 10 nM and a final substrate concentration of 250 μM. […] The correction factor of each enzyme/substrate pair was calculated by dividing the normalized IVIS data by the normalised 20/20n data. All 20/20n data were then multiplied by their respective correction factors.

The subject of series [3] is purified wild type (WT) luciferase (Photinus pyralis (luciferase) [Ppy Luc]). The conditions noted are these: cited from earlier work.
The subject of series [4] is purified firefly luciferase (luc) expressed from E. coli. The note with it: cited from earlier work; for λmax (lit.): literature value.
For series [5] the following is noted: literature value; cited from earlier work.
Series [6] can be described thus: Fluorescence spectrophotometry (excitation emission spectra). In kind it is physicochemical. The note with it: for fluorescence emission intensity: excitation at 390 nm, FIG. 15. As to the method: The free D-thioluciferin has a greater intensity relative to the sulfide which is promising for further sensor development.
Excitation and emission spectra were recorded on a Varian Cary Eclipse fluorometer equipped with a regulated temperature cell holder and Hellma, Suprasil® quartz fluorescence cuvettes of 10 mm pathlength and 1.5 mL volume capacity. Emission spectra were recorded at an excitation wavelength corresponding to previously recorded absorption maxima. Samples were prepared as a 0.1 mM DMSO solution, unless otherwise stated, and were scanned from 200 nm to 800 nm (Ex. Slit/Em. Slit 5 nm) at a scan rate of 600.00 nm/mn. Data were analysed using Scan Software Version 1.1.

Series [7] has as its system purified firefly luciferase (10 nM) expressed from E. coli. The series can be described thus: Inhibition of firefly luciferase by D-thioluciferin sulfide (thioacrylate). The conditions noted are these: D-thioluciferin 10 μM, increasing sulfide. In kind it is biochemical, Photinus pyralis. As to the method: FIG. 14 is a bar graph showing potential inhibitory effects of firefly luciferase by D-thioluciferin sulfide (thioacrylate). D-thioluciferin (10 μM) was treated with purified firefly luciferase (10 nM) expressed from E. coli and the luminescence recorded in the absence and presence of the sulifide.

[8] abbreviates: FIG. 10, 0.1 μM substrate, 10 nM luciferase.
Setting [9] is: measured for 15 seconds post-specified time.

SMILES strings stand for the structures. “And” between values parts separate entries of the source, which are not always exact repeats. Identical values can stand only once. Like-named read-outs stand apart in the source and are kept apart here.

Regarding `Nc1ccc2nc(C3=N[C@@H](C(=O)O)CS3)sc2c1` [D-aminoluciferin, (S)-2-(6-aminobenzo[d]thiazol-2-yl)-4,5-dihydrothiazole-4-carboxylic acid], in series [1] (setting [8]), the “emission signal, fold less intense compared to D-luciferin” value is 100 fold. For the same molecule, the Vmax in series [1] (10 nM luciferase) was 13 ± 2.2 RLU/s. Besides, the Km in series [1] came out at 0.39 ± 0.08 µM. In series [2], the bioluminescence emission wavelength is reported as 593 nm and the λmax amounted to 597 nm. In addition, the “time post-addition of rapid decrease in luminescent activity” value with WT luciferase (Ppy Luc) came to 1 min. In the series with WT luciferase (Ppy Luc) (setting [9]), the “Rate 5 min post-addition (rate of reduction in luminescence)” value came out at 1.216 ± 0.1305 RLU/s and the “Rate 20 minutes post addition (rate of reduction in luminescence)” value was found to be 0.1510 ± 0.007506 RLU/s. Further, the “Vmax (lit.)” value in series [3] (literature value) is listed as 169 ± 2.6 photons/min. Also, in series [3] (literature value, read-out: Km (lit)), the Km was 0.62 ± 0.05 µM. Besides, the Km in series [3] (previously calculated, comparison, read-out: Km previously calculated) was 0.39 to 0.69 µM. For the same molecule, the “λmax (lit.)” value in series [4] is reported as 594 nm. The “Fluorescence (lit.)” value in series [5] is listed as 517 nm.

On to `O=C(O)[C@H]1CSC(c2nc3ccc(O)cc3s2)=N1` [D-luciferin, (S)-2-(6-hydroxybenzo[d]thiazol-2-yl)-4,5-dihydrothiazole-4-carboxylate], for which, in series [1] (setting [8]), the “relative luminescence emission intensity, fold greater than both D-aminoluciferin and D-thioluciferin” value came out at 100 fold. For the same molecule, the Vmax in series [1] (10 nM luciferase) is listed as 57 ± 13 RLU/s. In addition, the Km in series [1] was 8.3 µM and 8 µM. Moreover, in series [2], the bioluminescence emission wavelength was 547 nm and the λmax turned out to be 553 nm. The same molecule showed a bioluminescence emission wavelength in series [2] (listed as D-Luciferin) of 557 nm. In the series on WT luciferase (Ppy Luc), the “time post-addition of rapid decrease in luminescent activity” value came to 10 min. In the series with WT luciferase (Ppy Luc) (setting [9]), the “Rate 5 min post-addition (rate of reduction in luminescence)” value turned out to be 9.300 ± 0.9815 RLU/s and the “Rate 20 minutes post addition (rate of reduction in luminescence)” value is reported as 0.3400 ± 0.05773 RLU/s. In series [4] (background statement), the “relative emission λmax” value is reported as 594 nm. Besides, the “λmax (lit.)” value in series [4] is 551 nm. Moreover, the “Fluorescence (lit.)” value in series [5] is recorded as 528 nm.

Turning to `O=C(O)C1CSC(c2nc3ccc(SSc4ccc5nc(C6=NC(C(=O)O)CS6)sc5c4)cc3s2)=N1` [D-thioluciferin disulfide], the “luminescence output when treated with luciferase” value in series [1] is on record as “much higher luminescence output than its corresponding control”. Moreover, in series [1] (FIG. 11), the “ability to produce bioluminescence (luciferase substrate)” value is “neither of which appeared to be bioluminescent substrates”.

Take `O=C(/C=C/Sc1ccc2nc(C3=N[C@@H](C(=O)O)CS3)sc2c1)OCc1ccccc1` [D-thioluciferin thioacrylate, (S,E)-2-(6-((3-(benzyloxy)-3-oxoprop-1-en-1-yl)thio)benzo[d]thiazol-2-yl)-4,5-dihydrothiazole-4-carboxylic acid]: the “luminescence output when treated with luciferase” value in series [1] was “negligible”. The “ability to produce bioluminescence (luciferase substrate)” value in series [1] (FIG. 11) is on record as “neither of which appeared to be bioluminescent substrates”. The fluorescence emission intensity result in series [6] was “only weakly fluorescent”. Moreover, the inhibition of luciferase entry was “strongly inhibitory” in series [7] (FIG. 14) and “decrease in emission intensity with increasing concentration of the sulfide” in series [7] (FIG. 14, listed as D-thioluciferin sulfide (thioacrylate)).

`O=C(O)[C@H]1CSC(c2nc3ccc(S)cc3s2)=N1` [D-thioluciferin, (S)-2-(6-mercaptobenzo[d]thiazol-2-yl)-4,5-dihydrothiazole-4-carboxylic acid]: in series [1], the “emission, fold greater over the background” value is on record as more than 100 fold; the Michaelis constant (Km) was 0.117 µM and 0.1 µM. Moreover, the “emission signal, fold less intense compared to D-luciferin” value in series [1] (setting [8]) turned out to be 100 fold. Besides, the “luminescence output, fold greater than protected thioacrylate (sulfide)” value in series [1] (FIG. 11, 0.1 μM, 10 nM luciferase) is given as 90 fold. The Vmax in series [1] (10 nM luciferase) is 0.7597 ± 0.1071 RLU/s and 0.6661 ± 0.1522 RLU/s. Also, the Michaelis-Menten constant (Km) in series [1] (listed as D-Thioluciferin) came out at 0.098 ± 0.0147 µM. In addition, in series [2], the bioluminescence emission wavelength was 599 nm and 600 nm; the λmax is reported as 599 nm. For the same molecule, the “period over which light of constant intensity is sustained” value in the series on WT luciferase (Ppy Luc) was 20 min. In the series with WT luciferase (Ppy Luc) (FIG. 9, 10 nM luciferase, 100 μM substrate), the burst kinetics profile result was “robust initial burst of light followed by sustained light output of much lower intensity”. For the same molecule, in the series on WT luciferase (Ppy Luc) (setting [9]), the “Rate 1 min post-peak emission (rate of reduction in luminescence)” value turned out to be 4.929 ± 0.1584 RLU/s, the “Rate 5 min post-addition (rate of reduction in luminescence)” value was 0.0067 RLU/s and the “Rate 20 minutes post addition (rate of reduction in luminescence)” value was found to be 0.0022 RLU/s. Moreover, the fluorescence emission intensity result in series [6] is “strong fluorescence emission”. In addition, in series [6] (fluorescence emission), the Fluorescence turned out to be 500 nm.

As a reminder, the Km is the substrate concentration at which the rate is half of its maximum.
